# What was measured:
# [1] = In vitro immunosuppression in stimulated T cells expressing Voltage-gated potassium channel subunit Kv1.3
# [2] = In vitro immunosuppression in stimulated T cells expressing Voltage-gated potassium channel subunit Kv1.3; Range is 1-10
EC50 [1] [µM],IC50 [2] [µM],SMILES
1,,CCC/N=c1\ccn(Cc2ccccc2)c2cc(Cl)ccc12
,1,CCNC(=O)c1cc(/C=C/CCc2ccccc2)ccc1-c1ccc(Cl)cc1 [4'-Chloro-4-((E)-4-phenyl-but-1-enyl)-biphenyl-2-carboxylic acid ethylamide]

# Source: BindingDB's records for doi:10.1021/jm000484+ (Abbott Laboratories, 2001)
